# Measured values as given in patent US5591755A, “Pyridinyl thiadiazolyl compounds for treating glaucoma” (Novo Nordisk A/S, priority 1990, dated 1997).
# Structures can show the parent of a compound that is named as a salt. Where two headings read alike, the source gives them in different places.
# Columns and labels:
# [1] = molecular target: muscarinic acetylcholine receptors; test: inhibition of specific binding of 3H-Oxotremorine-M (3H-Oxo), in vitro; design: species or system rat (cortex from male Wistar rats); details: 3H-Oxo binding, rat cortex, 1.0 nM radioligand, 20 mM Hepes pH 7.4, 30 min at 25° C.
# Excerpt: The pharmacological properties of the compounds of the invention can be illustrated by determining their capability to inhibit the specific binding of ^3 H-Oxotremorine-M (^3 H-Oxo). Birdsdall N. J. M., Hulme E. C., and Burgen A. S. V. (1980). "The Character of Muscarinic Receptors in Different Regions of the Rat Brain". Proc. Roy. Soc. London (Series B) 207,1. ^3 H-Oxo labels muscarinic receptor in the CNS (with a preference for agonist domaines of the receptors). Three different sites are labelled by ^3 H-Oxo. […] Using the present experimental conditions only the high and medium affinity sites are determined.
# The inhibitory effects of compounds on ^3 H-Oxo binding reflects the affinity for muscarinic acetylcholine receptors.
# All preparations are performed at 0°-4° C. unless otherwise indicated. Fresh cortex (0.1-1 g) from male Wistar rats (150-250 g) is homogenized for 5-10 s in 10 ml 20 mM Hepes pH: 7.4, with an Ultra-Turrax homogenizer. The homogenizer is rinsed with 10 ml of buffer and the combined suspension centrifuged for 15 min at 40,000×g. The pellet is washed three times with buffer. In each step the pellet is homogenized as before in 2×10 ml of buffer and centrifuged for 10 min at 40,000×g.
# The final pellet is homogenized in 20 mM Hepes pH: 7.4 (100 ml per g of original tissue) and used for binding assay. Aliquots of 0.5 ml is added 25 μl of test solution and 25 μl of 3H-Oxotremorine (1.0 nM, final concentration) mixed and incubated for 30 min at 25° C. Non-specific binding is determined in triplicate using arecoline (1 μg/ml, final concentration) as the test substance. After incubation samples are added 5 ml of ice-cold buffer and poured directly onto Whatman GF/C glass fiber filters under suction and immediately washed 2 times with 5 ml of ice-cold buffer. The amount of radioactivity on the filters are determined by conventional liquid scintillation counting. Specific binding is total binding minus non specific binding.
# Test substances are dissolved in 10 ml water (if necessary heated on a steambath for less than 5 minutes) at a concentration of 2.2 mg/ml.
# The test value will be given as IC50 (the concentration (ng/ml) of the test substance which inhibits the specific binding of ^3 H-Oxo by 50%). [formula] where Co is specific binding in control assays and Cx is the specific binding in the test assay. (The calculations assume normal mass-action kinetics).
# [2] = molecular target: muscarinic receptor in the CNS; details: read-out: affinity of sites labelled by 3H-Oxo, cited from earlier work
# [3] = in vivo; cited from earlier work
# [4] = test system: central and peripheral muscarinic effects; details: cited from earlier work
Structure (SMILES),Inhibition in vitro OXO BINDING (IC50) [1],further results
"CCCCCCOc1nsnc1C1=C(C)CCN(C)C1 [Compound 2, 3-(4-Hexyloxy-1,2,5-thiadiazol-3-yl)-1,2,5,6-tetrahydrohydro-1,4-dimethylpyridine oxalate]",18 ng/mL,
"CCCCCCSc1nsnc1C1=CCC(C)N(C)C1.O=C(O)C(=O)O (stereo not shown) [Compound 3, 3-(3-Hexylthio-1,2,5-thiadiazol-4-yl)-1,2,5,6-tetrahydro-1,6-dimethylpyridine oxalate]",4.5 ng/mL,
"CCCCCSc1nsnc1C1=CCC(C)N(C)C1.O=C(O)C(=O)O (stereo not shown) [Compound 4, 3-(3-Pentylthio-1,2,5-thiadiazol-4-yl)-1,2,5,6-tetrahydro-1,6-dimethylpyridine oxalate]",2.0 ng/mL,
"C[N+](C)(C)CC#CCN1CCCC1=O [Compound 3H-Oxo, ^3 H-Oxotremorine-M]",,Kd ([2]; first of three sites (high affinity)): 0.0018 µM; Kd ([2]; second of three sites (medium affinity)): 0.02 µM; Kd ([2]; third of three sites (not determined under the present conditions)): 3 µM
"CC1CC=C(c2nsnc2SCc2ccc(C#N)cc2)CN1C.O=C(O)C(=O)O (stereo not shown) [Compound 5, 3-(3-(4-Cyanobenzylthio)-1,2,5-thiadiazol-4-yl)-1,2,5,6-tetrahydro-1,6-dimethylpyridine oxalate]",1.9 ng/mL,
"COc1nsnc1C1=C(C)CCN(C)C1.O=C(O)/C=C/C(=O)O [Compound 1, 1,2,5,6-Tetrahydro-3-(4-methoxy-1,2,5-thiadiazol-3-yl)-1,4-dimethylpyridine fumarate]",108 ng/mL,
"COC(=O)C1=CCCN(C)C1 [Arecoline, methyl 1-methyl-1,2,5,6-tetrahydropyridine-3-carboxylate]",,biological half life [3]: very short biological half life; separation between central and peripheral muscarinic effects [4]: small separation between central and peripheral muscarinic effects

# Now from value to compound, other results behind:
Inhibition in vitro OXO BINDING (IC50) [1],Structure (SMILES),further results
3.3 ng/mL,"CCCCCOc1nsnc1C1=CCC(C)N(C)C1.O=C(O)C(=O)O (stereo not shown) [Compound 7, 3-(3-Pentyloxy-1,2,5-thiadiazol-4-yl)-1,2,5,6-tetrahydro-1,6-dimethylpyridine oxalate]",
2.4 ng/mL,"CCCCCCOc1nsnc1C1=CCC(C)N(C)C1.O=C(O)C(=O)O (stereo not shown) [Compound 6, 3-(3-Hexyloxy-1,2,5-thiadiazol-4-yl)-1,2,5,6-tetrahydro-1,6-dimethylpyridine oxalate]",
0.69 ng/mL,"CC1CC=C(c2nsnc2SCCCCC#N)CN1C.O=C(O)C(=O)O (stereo not shown) [Compound 8, 3-(3-(4-Cyanobutylthio)-1,2,5-thiadiazol-4-yl)-1,2,5,6-tetrahydro-1,6-dimethylpyridine oxalate]",
